The assay deals with mouse lung. The assay is described as follows: rAAV (AV.LacZ) gene transfer in mouse lung in vivo. More on the design: species or system BALB/c mice. As to the method:
FIGS. 17A–F. Persistent induction of rAAV mediated gene transfer in mouse conducting airways by proteasome inhibitors. FIGS. 17A–C) Recombinant AV.Alkphos (5×10^10 particles) was administered to mouse lung either as virus alone in PBS or virus in combination with 40 μM LLnL in PBS. Virus was directly instilled into […] mice trachea with a 30 G needle in a total volume of 30 μl. To insure the spread of the virus in mouse lung, 50 μl air was pumped into lung through the same syringe immediately after virus was administered. Ninety days after infection, lungs were harvested intact and fixed in 4% paraformaldehyde followed by cryosection. AAV-mediated transgene expression was evaluated by 10 μm tissue sections staining for heat-resistant alkaline phosphatase. FIG. 17A: infection with AAV alone; FIGS. 17B and 17C: infection with AAV supplemented with 40 µM of LLnL. FIGS. 17D–F) 6 week old BALB/c mouse (N=3 animals in each group) were infected with 5×10^10 DNA particles of AV.LacZ in the absence or presence of 400 μM Z-LLL by nasal instillation. Representative examples of histochemical staining for LacZ expression in large bronchioles 150 days post-infection are shown in FIGS. 17D and 17E. The right and left sides of each panel represent Nomarski and bright field photomicrographs, respectively. The 100 μm scale bar applies to all photomicrographs. The mean (+/−SEM) percentage of LacZ expressing epithelial cells at various levels of the airway was quantitated using the morphometric procedures outlined in the methods, and the analysis represents results from three independent animals for each group (FIG. 17F).
In vivo studies in mice. Animal studies were performed in accordance with the institutional guidelines of the University of Iowa To determine the effect of the proteasome inhibitor on AAV mediated gene transfer in mouse lung, 6 week-old BALB/c mice were lightly anesthetized using a methoxyflurane chamber. AV.LacZ (5×10^10 particles) was administered alone or with 400 μM Z-LLL in a 10 μl instillation by nasal aspiration as described by Walters et al. (2000). To prevent unforeseen toxicity of DMSO solvent, the proteasome inhibitor Z-LLL was dissolved in ethanol as a 40 mM stock solution and was included in the viral inoculum at 1% final concentration. Viral infection controls in the absence of Z-LLL also contained a 1% final concentration of ethanol. […] The trachea was intubated and instilled at 10 cm of water pressure with the following solutions in order: PBS, 0.5% glutaraldehyde, 1 mM MgCl2/PBS, and finally X-gal staining reagent for an overnight incubation at room temperature. The X-gal stained mouse lungs were then post fixed in 10% neutral buffered formalin for 48 hours at room temperature and cryopreserved in serial 10%, 20% and 30% sucrose/PBS solutions. Lungs (N=3 for each condition) were embedded in OCT (optimal cutting temperature; Baxter, Warrendale, Pa.) and 15 μm serially sections were analyzed for gene transfer by calculating the percentage of positive cells in the airway epithelium. The diameter of the airway was recorded for classification (>360 μm, 260–350 μm, 160–250 μm, <150 μm) of results following morphometric analysis. Greater than 150 airway cross-sections were quantified for each experimental condition.

Molecules are shown by their SMILES. “And” between values parts separate entries of the source, which are not always exact repeats. Equal values may be shown once. Peptide text beside a SMILES is read from it. * marks the point of attachment. Cbz = O=C(OCc1ccccc1)*

Consider `CC(C)C[C@@H](C=O)NC(=O)[C@H](CC(C)C)NC(=O)[C@H](CC(C)C)NC(=O)OCc1ccccc1` [Z-LLL, N-carbobenzoxyl-L-leucinyl-L-leucinyl-L-leucinal] (Cbz-Leu-Leu-Leu-aldehyde), for which, under “400 μM Z-LLL intranasal with 5×10^10 particles, 150 days”, the “airway cells transduced by AV.LacZ, average” value is reported as “about 5.88%”. For the same compound, for the setting “400 μM Z-LLL, 150 days”, the “airway cells in the smaller bronchioles (<150 mm) expressing β-galactosidase” value was found to be 1.37±0.41% and the “transduction of lung, in words” value was “significant transduction was achieved”. For the same compound, the “transduction efficiency in larger bronchioles (>350 mm), mean % of airway epithelium” value (400 μM Z-LLL, 150 days post-infection) was 10.36±1.63% and 10.36+/−1.63%. The “transgene expression (X-gal staining) in lung” value (3 and 10 days post infection) was “no detectable transgene expression”.

For the origin of these results see patent US7122335B1, “Compounds and methods to enhance rAAV transduction” (priority 1999, dated 2006).
